Source: publication PMC11467737, “Osteocalcin binds to a GPRC6A Venus fly trap allosteric site to positively modulate GPRC6A signaling” (FASEB BioAdvances, 2024)
Where a chain is given by its changes, count along the chain named. Bridge positions count the residues as written; N and C are the ends. Ends that are not written are not given here.

Columns and labels:
H355P hGPRC6A = target: T1, H355P hGPRC6A (Homo sapiens, UniProt Q5T6X5, H355P); test: cAMP accumulation in HEK-293 cells transfected with H355P hGPRC6A; format: cell-based; conditions: H355P mutant; for cAMP accumulation by Ocn small fragments: fragment at 20 nM, Figure 6C
T1 construct: expressed in transfected cells; host or cells: HEK-293, pcDNA3
T1 sequence (Q5T6X5 19-926 H355P): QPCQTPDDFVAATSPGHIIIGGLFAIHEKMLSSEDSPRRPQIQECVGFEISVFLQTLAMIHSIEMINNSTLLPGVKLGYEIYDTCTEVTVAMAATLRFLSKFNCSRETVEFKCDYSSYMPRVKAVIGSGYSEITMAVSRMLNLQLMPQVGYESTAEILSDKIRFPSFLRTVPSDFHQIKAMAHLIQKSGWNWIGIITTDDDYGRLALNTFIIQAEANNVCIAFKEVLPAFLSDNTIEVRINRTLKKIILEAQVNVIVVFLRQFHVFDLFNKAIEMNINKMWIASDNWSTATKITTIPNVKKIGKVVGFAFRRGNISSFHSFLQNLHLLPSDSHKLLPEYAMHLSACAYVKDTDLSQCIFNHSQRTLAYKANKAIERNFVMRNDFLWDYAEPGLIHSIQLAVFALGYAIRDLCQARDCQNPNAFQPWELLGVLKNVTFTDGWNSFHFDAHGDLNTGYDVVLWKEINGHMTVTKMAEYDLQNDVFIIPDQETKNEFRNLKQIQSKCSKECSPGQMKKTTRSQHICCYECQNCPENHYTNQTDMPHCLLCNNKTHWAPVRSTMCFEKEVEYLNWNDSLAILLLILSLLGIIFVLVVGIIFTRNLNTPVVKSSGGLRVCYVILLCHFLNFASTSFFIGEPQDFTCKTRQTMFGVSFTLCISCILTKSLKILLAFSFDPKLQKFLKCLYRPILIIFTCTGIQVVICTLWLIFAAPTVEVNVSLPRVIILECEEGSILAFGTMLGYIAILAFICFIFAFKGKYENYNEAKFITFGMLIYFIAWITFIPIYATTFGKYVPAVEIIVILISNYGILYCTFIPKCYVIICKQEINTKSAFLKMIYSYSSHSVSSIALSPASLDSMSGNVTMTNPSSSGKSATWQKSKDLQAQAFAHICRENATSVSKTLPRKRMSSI
Method: (§1) HEK‐293 transfected with human GPRC6A isoform cDNA plasmids cells (10^5 cells/well)[30] were cultured in 24‐well plates in DMEM supplemented with 10% fetal bovine serum and 1% penicillin/streptomycin (100 U/mL of penicillin and 100 μg/mL of streptomycin) for 48 h followed by 4 h incubation in DMEM/F12 containing 0.1% BSA and 0.5 mM IBMX to achieve quiescence and preventing cAMP degradation. Quiescent cells were treated with vehicle control, various ligands at concentration as indicated for 40 min at 37°C. Then, the reaction was stopped, and the cells lysed with 0.5 mL 0.1 N HCl. cAMP levels were measured by using Cyclic AMP EIA kit (Cayman Chemical; Ann Arbor, MA, USA) following the manufacture's protocol.
(§2) In‐vitro mutagenesis by PCR‐mediated recombination QuikChange II XL Site‐Directed Mutagenesis Kit (Agilent) was performed using the cDNA of human GPRC6A cloned in the vector pcDNA3 (Invitrogen) as a template. The primer sets are as follows. K352E.sen: […]; K352E.antisen: […]; H355P.sen: […]; H355P.antisen: […]; K352E/H355P.sen: […]; and K352E/H355P.antisen: […]. All mutants were confirmed by sequencing.

K352E/H355P hGPRC6A = target: T2, K352E/H355P hGPRC6A (Homo sapiens, UniProt Q5T6X5, H355P/K352E); test: cAMP accumulation in HEK-293 cells transfected with K352E/H355P hGPRC6A; format: cell-based; conditions: for cAMP accumulation by Ocn small fragments: K352E/H355P double mutant, fragment at 20 nM, Figure 6C
T2 construct: expressed in transfected cells; host or cells: HEK-293, pcDNA3
T2 sequence (Q5T6X5 19-926 K352E/H355P): T1 sequence (Q5T6X5 19-926 H355P) with K334E
Method: as §1, §2

| Substance | cAMP accumulation, dose response of full-length Ocn, versus wild-type receptor (H355P hGPRC6A; Figure 6A) | cAMP accumulation, dose response of full-length Ocn, versus wild-type receptor (K352E/H355P hGPRC6A; K352E/H355P mutant, Figure 6A) | cAMP accumulation by Ocn small fragments (H355P hGPRC6A) | cAMP accumulation by Ocn small fragments (K352E/H355P hGPRC6A) |
| --- | --- | --- | --- | --- |
| osteocalcin (YLYQWLGAPVPYPDPLEPRREVCELNPDCDELADHIGFQEAYRRFYGPV; not fully specified; ends and bridges not checked; UniProt P02818 52-100, looked up) [Ocn 1–49, full human Ocn (49 aa) synthesized by BioMatik; methods also describe decarboxylated Ocn purified from bovine tibial bone, reference compound] | significantly decreased | significantly decreased | – | – |
| RFYGPV [Ocn 44–49, synthesized human Ocn C‐terminal hexapeptide] | – | – | significantly attenuated | partially activate |
| REVCELNPDC (disulfide 4-10 (inferred)) [Ocn 20–29, synthesized human Ocn decapeptide fragment located in the middle of the protein] | – | – | no response | no response |
